Common to all, as to assay type: in vivo
For assay [1], the system named is adults of Ctenocephalides felis. The experiment in a line: Assay for oral parasiticidal activity against adults of Ctenocephalides felis. As to conditions: read-out: mortality rate. How it is done: Newly-emerged adults of C. felis were placed into test cages (10 adults per test cage). DMSO diluted solutions of various compounds of the present invention were added to aliquots of bovine blood at the final concentration of 50 ppm and orally administered to the adults of C. felis using a feeder. The mortality rate was examined on the following day. Aberrant adults were regarded as the dead.

In assay [2] the test system is L1 stage larvae of H. contortus. The experiment in a line: Larval motility assay on Haemonchus contortus. Particulars: 96 h, 4 days, relative to DMSO only, read-out: percent motility inhibition. The method, then: Dimethyl sulfoxide (DMSO) diluted solutions of various compounds of the present invention were added at the final concentration of 50 ppm to the wells of a 96-well plate containing a predetermined conditioned medium. Twenty L1 stage larvae of H. contortus were introduced into each well of the 96-well plate. The plate was allowed to stand for 4 days, and then larval motility was examined. The percent motility inhibition in the wells of each treatment was calculated relative to the wells of treatment with DMSO only.

The test system of assay [3] is L1 stage larvae of D. immitis. The experiment in a line: Larval motility assay on Dirofilaria immitis. Particulars: 72 h, 3 days, relative to DMSO only, read-out: percent motility inhibition. The method, then: Five hundred L1 stage larvae of D. immitis were diluted in a predetermined conditioned medium and introduced into each well of a 96-well plate. DMSO diluted solutions of various compounds of the present invention were added at the final concentration of 50 ppm to the wells of the 96-well plate. The plate was allowed to stand for 3 days, and then larval motility was examined. The percent motility inhibition in the wells of each treatment was calculated relative to the wells of treatment with DMSO only.

A further assay has as its system Plutella xylostella. The experiment in a line: Insecticidal test on Plutella xylostella. As to conditions: in Brassica rapa, 144 h, read-out: insecticidal efficacy (mortality rate) activity level. The text has this: Adults of P. xylostella were released onto Chinese cabbage seedlings and allowed to lay eggs thereon. At 2 days after the release of the adults, the Chinese cabbage seedlings with laid eggs were dipped for about 30 seconds in agrochemical formulations diluted to 500 ppm, each of which contained a different kind of condensed heterocyclic compound having a bridgehead nitrogen atom represented by the general formula (1) of the present invention as an active ingredient. After air-dried, the seedlings were kept in a thermostatic chamber at 25° C. At 6 days after the dip treatment, the number of hatched larvae per plot was counted, the mortality rate of P. xylostella was calculated according to the formula shown below, and the insecticidal efficacy was evaluated according to the criteria of Test Example 1. This test was conducted in triplicate using 10 adults of P. xylostella per plot.

The subject of the next assay is Laodelphax striatellus. Put plainly: Insecticidal test on Laodelphax striatellus. Particulars: in Oryza sativa, 192 h, read-out: insecticidal efficacy (corrected mortality rate) activity level. The text has this: The condensed heterocyclic compounds having a bridgehead nitrogen atom represented by the general formula (1) of the present invention or salts thereof were separately dispersed in water and diluted to 500 ppm. Rice plant seedlings (variety: Nihonbare) were dipped in the agrochemical dispersions for 30 seconds. After air-dried, each seedling was put into a separate glass test tube and inoculated with ten 3rd-instar larvae of L. striatellus, and then the glass test tubes were capped with cotton plugs. At 8 days after the inoculation, the numbers of surviving larvae and dead larvae of L. striatellus were counted, the corrected mortality rate was calculated according to the formula shown below, and the insecticidal efficacy was evaluated according to the criteria of Test Example 1.

Turning to `CCS(=O)(=O)c1cc(/C=N/OCC(F)F)cnc1-c1nc2cc(C(F)(F)F)ccn2n1` [Compound 1-7], in assay [1], the mortality at 50 ppm is no less than 50%. The inhibition at 50 ppm in assay [2] and in assay [3] was no less than 50% throughout. For the same compound, the mortality at 500 ppm in the assay with Plutella xylostella and in the assay on Laodelphax striatellus was 100% each time.
Take `CCS(=O)(=O)c1ccc(/C=N/OCC(F)(F)F)nc1-c1nc2cc(C(F)(F)C(F)(F)F)ncn2n1` [Compound 2-42, 5-ethylsulfonyl-6-(7-pentafluoroethyl-[1,2,4]triazolo[1,5-c]pyridin-2-yl)picolinaldehyde O-(2,2,2-trifluoroethyl)oxime]: the mortality at 500 ppm with Plutella xylostella and in the assay with Laodelphax striatellus was 100% in each case.
`CCS(=O)(=O)c1cc(/C(=N/OCCSC)OC)cnc1-c1nc2cc(C(F)(F)F)ccn2n1` [Compound 3-1, methyl 5-ethylsulfonyl-N-(2-methylthioethoxy)-6-(7-(trifluoromethyl)-[1,2,4]triazolo[1,5-a]pyridin-2-yl)nicotinimidate]: the mortality at 500 ppm in the assay with Plutella xylostella and with Laodelphax striatellus was 100% in each case.
Consider `CCS(=O)(=O)c1cc(/C(Br)=N/OCCSC)cnc1-c1nc2cc(C(F)(F)F)ccn2n1` [Compound 3-19, 5-ethylsulfonyl-N-(2-methylthioethoxy)-6-(7-trifluoromethyl-[1,2,4]triazolo[1,5-a]pyridin-2-yl)nicotinimidoyl bromide], for which the mortality at 500 ppm with Plutella xylostella and in the assay on Laodelphax striatellus was 100% throughout.
`CCS(=O)(=O)c1cc(/C(=N/OCCSC)C2CC2)cnc1-c1nc2cc(C(F)(F)F)ccn2n1` [Compound 3-28]: the mortality at 500 ppm with Plutella xylostella and with Laodelphax striatellus was 100% in each case.
Regarding `CCS(=O)(=O)c1cc(/C(=N/OCCSC)c2ccccc2)cnc1-c1nc2cc(C(F)(F)F)ccn2n1` [Compound 3-46, (5-ethylsulfonyl-6-(7-trifluoromethyl-[1,2,4]triazolo[1,5-a]pyridin-2-yl)pyridin-3-yl)phenylmethanone O-(2-methylthioethyl)oxime], the mortality at 500 ppm with Plutella xylostella and with Laodelphax striatellus was 100% throughout.

The values above are taken from patent US12116370B2, “Condensed heterocyclic compound having a bridgehead nitrogen atom or salt thereof, agricultural or horticultural insecticide comprising the compound, and method for using the insecticide” (Nihon Nohyaku Co., Ltd., priority 2019, dated 2024).
